Consider three compounds from article PMC8878324, “Evaluation of New Antimicrobial Agents Based on tris(1H-Indol-3-yl)methylium Salts: Activity, Toxicity, Suppression of Experimental Sepsis in Mice” (Pharmaceuticals, 2022).

The subject of assay [1] is yeast (Candida albicans) and fungi (Aspergillus niger). The assay can be described thus: Antifungal activity. The assay is classed as cell-based. The following applies: for antifungal activity: in words. Here is the method:
(§1) We have tested the antimicrobial activity in vitro of over 100 tris(indolyl)methane derivatives against 16 strains of Gram-positive, Gram-negative bacteria and fungi including either sensitive or drug-resistant strains from ATCC, as well as resistant clinical isolates from the culture collection of the Laboratory for Control of Hospital Infections (Sechenov University, Moscow, Russia). The minimum inhibitory concentrations (MICs) were determined by the microdilution method in a cation-adjusted Müller–Hinton medium for bacteria and in a liquid culture medium RPMI 1640 with L-glutamine without sodium bicarbonate for fungi in accordance with the requirements of the Institute of Clinical and Laboratory Standards (CLSI/NCCLS). […] As a rule, their activity against Gram-negative bacteria was usually not that high. […] For comparison, the antimicrobial activity of prototype 4 is shown. The antibacterial antibiotic levofloxacin and the antifungal amphotericin B were used as reference drugs (Table 1).
(§2) The minimum inhibitory concentrations (MIC) for Gram-positive and Gram-negative bacteria were determined by two-fold serial microdilution method in a cation-adjusted Müller–Hinton medium for bacteria and in a liquid culture medium RPMI 1640 with L-glutamine without sodium bicarbonate for fungi in accordance with the requirements of the Institute of Clinical and Laboratory Standards (CLSI/NCCLS). The antibacterial antibiotic levofloxacin and the antifungal antibiotic amphotericin B from Sigma-Aldrich were used as reference drugs.

The test system of a further assay is Gram-positive bacteria. Briefly: MIC against Gram-positive bacteria. The assay is classed as cell-based. The procedure:
as §1, §2

Molecules are shown by their SMILES. Like-named read-outs stand apart in the source and are kept apart here.

With `OCCCCCn1cc([C+](c2cn(CCCCCO)c3ccccc23)c2cn(CCCCCO)c3ccccc23)c2ccccc21.[Cl-]` [Compound 1, tris(1-(5-Hydroxypentyl)-1H-indol-3-yl) methylium chloride], in assay [1], the antifungal activity entry is on record as “no antifungal activity at all”. The MIC in the assay with Gram-positive bacteria (read-out: MIC) worked out at 2 µg/mL.

Regarding `CCCn1cc([C+](c2cn(CCC)c3ccccc23)c2cn(C3=C(N)C(=O)NC3=O)c3ccccc23)c2ccccc21.[Cl-]` [Compound 2, (1-(4-Amino-2,5-dioxo-2,5-dihydro-1H-pyrrol-3-yl)-1H-indol-3-yl)bis(1-propyl-1H-indol-3-yl) methylium chloride], the antifungal activity entry in assay [1] is given as “low antifungal activity”. For `CCCn1cc([C+](c2cn(CCC)c3ccccc23)c2cn(C3=C(N(C)C)C(=O)NC3=O)c3ccccc23)c2ccccc21` [Compound 3, 1-(4-Dimethylamino-2,5-dioxo-2,5-dihydro-1H-pyrrol-3-yl) -1H-indol-3-yl) bis(1-propyl-1H-indol-3-yl) methylium chloride], the MIC in assay [1] (Candida albicans and Aspergillus niger) came to 2 µg/mL; in the assay with Gram-positive bacteria, 0.13 µg/mL.
